The values below come from US11090304B2 (Amgen Inc., priority 2018, dated 2021).

Assay [1] addresses GDP-bound KRAS protein (aa 1-169), containing both G12C and C118A amino acid substitutions (Homo sapiens, UniProt P01116, C118A/G12C). Description: Coupled nucleotide exchange assay (SOS-mediated, AlphaScreen). As to conditions: 5 min compound pre-incubation. It counts as biochemical.
In assay [2] the test system is Phosphorylation of ERK1/2 in MIA PaCa-2 cells. Description: Phospho-ERK1/2 MSD assay in MIA PaCa-2 cells. It counts as cell-based. As to conditions: read-out: p-ERK IC50 (2 h; MIA PaCa-2), 2 h compound treatment. Put shortly: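 In the procedure, cells were plated a day ahead at 25,000 per well. Next, a dilution series of compound in growth medium was added for 2 or 4 h. EGF (10 ng/mL) stimulation for 10 min preceded washing and RIPA lysis. Lysate phospho-ERK1/2 was read by MSD, with IC50 derived by 4-parameter logistic analysis.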

Where two headings read alike, the source gives them in different places.

In the case of `C=CC(=O)N1CCN(c2nc(=O)n(-c3nccnc3C(C)(C)C)c3nc(-c4c(O)cccc4F)c(Cl)cc23)[C@@H](C)C1` [Example 55-23], the “Coupled exchange IC50 (5 min)” value in assay [1] is recorded as 0.208 | nda μM. Moreover, the IC50 in assay [2] (Homo sapiens, MIA PaCa-2, 2 h) stood at 260 nM.

Turning to `C=CC(=O)N1CCN(c2nc(=O)n(-c3c(C)ccnc3C(C)C)c3nc(-c4cc(O)cc(Cl)c4Cl)c(F)cc23)[C@@H](C)C1` [Example 58-7, 7-(2,3-dichloro-5-hydroxyphenyl)-6-fluoro-1-(4-methyl-2-(2-propanyl)-3-pyridinyl)-4-((2S)-2-methyl-4-(2-propenoyl)-1-piperazinyl)pyrido[2,3-d]pyrimidin-2(1H)-one], in assay [1], the “Coupled exchange IC50 (5 min)” value is 0.072 | nda μM. Also, in assay [2] (Homo sapiens, MIA PaCa-2, 2 h), the IC50 came to 1990 nM.

`C=CC(=O)N1CCN(c2nc(=O)n(-c3c(C)ccnc3C(C)C)c3nc(-c4ccccc4F)c(C)cc23)[C@@H](C)C1` (single isomer, unassigned) [Example 74-2-2]: the “Coupled exchange IC50 (5 min)” value in assay [1] is 2.325 | nda μM. Moreover, in assay [2], the IC50 was determined as 1040 nM.

For the compound `C=CC(=O)N1CCN(c2nc(=O)n(-c3ccccc3N(C)C)c3nc(-c4c(O)cccc4F)c(Cl)cc23)[C@@H](C)C1` [Example 54-42, 6-chloro-1-(2-(dimethylamino)phenyl)-7-(2-fluoro-6-hydroxyphenyl)-4-((2S)-2-methyl-4-(2-propenoyl)-1-piperazinyl) pyrido[2,3-d]pyrimidin-2(1H)-one], in assay [1], the “Coupled exchange IC50 (5 min)” value is reported as 0.79 | nda μM. In addition, in assay [2] (Homo sapiens, MIA PaCa-2, 2 h), the IC50 came out at 322 nM.

For the compound `C=CC(=O)N1CCN(c2nc(=O)n(-c3c(C)ccnc3C(C)C)c3nc(-c4ccc(F)cc4F)c(F)cc23)[C@@H](C)C1` [Example 58-10, 7-(2,4-difluorophenyl)-6-fluoro-1-(4-methyl-2-(2-propanyl)-3-pyridinyl)-4-((2S)-2-methyl-4-(2-propenoyl)-1-piperazinyl)pyrido[2,3-d]pyrimidin-2(1H)-one], in assay [1], the “Coupled exchange IC50 (5 min)” value was 0.445 | nda μM. For the same compound, in assay [2] (Homo sapiens, MIA PaCa-2, 2 h), the IC50 was 433 nM.

For `C=CC(=O)N1CCN(c2nc(=O)n(-c3cccnc3C(C)(C)C)c3nc(-c4ccccc4F)c(Cl)cc23)[C@@H](C)C1` [Example 54-112, 6-chloro-7-(2-fluorophenyl)-1-(2-(2-methyl-2-propanyl)-3-pyridinyl)-4-((2S)-2-methyl-4-(2-propenoyl)-1-piperazinyl) pyrido[2,3-d]pyrimidin-2(1H)-one], in assay [1], the “Coupled exchange IC50 (5 min)” value was 0.084 | nda μM. The IC50 in assay [2] (Homo sapiens, MIA PaCa-2, 2 h) was determined as 222 nM.

Take `C=CC(=O)N1CCN(c2nc(=O)n(-c3c(C)cc(CO)cc3C(C)C)c3nc(-c4ccccc4F)c(Cl)cc23)[C@@H](C)C1` (single isomer, unassigned) [Example 80-2-2]: the “Coupled exchange IC50 (5 min)” value in assay [1] is listed as 0.048 | nda μM. In addition, in assay [2] (Homo sapiens, MIA PaCa-2, 2 h), the IC50 is 47 nM.

For `C=CC(=O)N1CCN(c2nc(=O)n(-c3ccccc3C(C)C)c3nc(-c4cc(OC(F)F)ccc4F)c(Cl)cc23)[C@@H](C)C1` (single isomer, unassigned) [Example 54-51-1], the “Coupled exchange IC50 (5 min)” value in assay [1] is on record as 0.108 | nda μM. Moreover, the half-maximal inhibitory concentration (IC50) in assay [2] (Homo sapiens, MIA PaCa-2, 2 h) worked out at 263 nM.

`C=CC(=O)N1CCN(c2nc(=O)n(-c3c(C(C)C)ncnc3C(C)C)c3nc(-c4c(N)cccc4F)c(Cl)cc23)[C@@H](C)C1` [Example 56-2, 7-(2-amino-6-fluorophenyl)-6-chloro-1-(4,6-di(2-propanyl)-5-pyrimidinyl)-4-((2S)-2-methyl-4-(2-propenoyl)-1-piperazinyl)pyrido[2,3-d]pyrimidin-2(1H)-one]: in assay [1], the “Coupled exchange IC50 (5 min)” value is 0.061 | nda μM. The 50% inhibitory concentration (IC50) in assay [2] (Homo sapiens, MIA PaCa-2, 2 h) was determined as 52 nM.

As for `C=CC(=O)N1CCN(c2nc(=O)n(-c3ccccc3C(C)C)c3nc(-c4c(O)cccc4F)c(F)cc23)[C@@H](C)C1` (single isomer, unassigned) [Example 57-6-1], the “Coupled exchange IC50 (5 min)” value in assay [1] is given as 3.163 | nda μM. Also, in assay [2], the IC50 worked out at 2090 nM.

For `C=CC(=O)N1CCN(c2nc(=O)n(-c3c(C(C)C)nc(N)nc3C(C)C)c3nc(-c4ccccc4F)c(Cl)cc23)[C@@H](C)C1` [Example 139, 1-(2-Amino-4,6-di(2-propanyl)-5-pyrimidinyl)-6-chloro-7-(2-fluorophenyl)-4-((2S)-2-methyl-4-(2-propenoyl)-1-piperazinyl)pyrido[2,3-d]pyrimidin-2(1H)-one], the “Coupled exchange IC50 (5 min)” value in assay [1] is reported as 0.117 | nda μM. In assay [2] (Homo sapiens, MIA PaCa-2, 2 h), the IC50 was determined as 25 nM.

As for `C=CC(=O)N1CCN(c2nc(=O)n(-c3c(C(F)(F)F)ccnc3C(C)C)c3nc(-c4c(O)cccc4F)c(F)cc23)[C@@H](C)C1` [Example 58-3, 6-fluoro-7-(2-fluoro-6-hydroxyphenyl)-4-((2S)-2-methyl-4-(2-propenoyl)-1-piperazinyl)-1-(2-(2-propanyl)-4-(trifluoromethyl)-3-pyridinyl)pyrido[2,3-d]pyrimidin-2(1H)-one], the “Coupled exchange IC50 (5 min)” value in assay [1] was 0.261 | nda μM. Besides, the IC50 in assay [2] (Homo sapiens, MIA PaCa-2, 2 h) came out at 181 nM.

Turning to `C=CC(=O)N1CCN(c2nc(=O)n(-c3c(C)ccnc3C(C)C)c3nc(-c4cc(O)cc(Cl)c4Cl)c(F)cc23)[C@@H](C)C1` (single isomer, unassigned) [Example 58-7-2], in assay [1], the “Coupled exchange IC50 (5 min)” value was 0.041 | nda μM. The IC50 in assay [2] turned out to be 515 nM.

As for `C=CC(=O)N1CCN(c2nc(=O)n(-c3ccccc3C(C)C)c3nc(-c4cc(O)cc(Cl)c4Cl)c(Cl)cc23)[C@@H](C)C1` (single isomer, unassigned) [Example 54-91-2], the “Coupled exchange IC50 (5 min)” value in assay [1] was 0.181 | nda μM. The IC50 in assay [2] was 509 nM.

For the compound `C=CC(=O)N1C[C@H](C)N(c2nc(=O)n(-c3c(C)cccc3C(C)C)c3nc(-c4c(O)cccc4F)c(F)cc23)[C@@H](C)C1` (single isomer, unassigned) [Example 63-3], the “Coupled exchange IC50 (5 min)” value in assay [1] is recorded as 0.059 | nda μM. For the same compound, the IC50 in assay [2] (Homo sapiens, MIA PaCa-2, 2 h) amounted to 108 nM.

Take “6-Chloro-7-(2-fluoro-6-hydroxyphenyl)-4-((2S)-2-methyl-4-(2-propenoyl)-1-piperazinyl)-1-(2-(methylsulfonyl)phenyl)pyrido[2,3-d]pyrimidin-2(1H)-one [Example 54-1]”: the IC50 stood at 225 nM in assay [1] (read-out: Coupled exchange IC50 (5 min)) and 109 nM in assay [2].

Regarding `C=CC(=O)N1CCN(c2nc(=O)n(-c3c(C(C)C)cccc3N(C)C)c3nc(-c4ccccc4F)c(Cl)cc23)[C@@H](C)C1` (single isomer, unassigned) [Example 54-104-2], the “Coupled exchange IC50 (5 min)” value in assay [1] is recorded as 0.035 | nda μM. In addition, the IC50 in assay [2] (Homo sapiens, MIA PaCa-2, 2 h) was 210 nM.

Regarding `C=CC(=O)N1CCN(c2nc(=O)n(-c3c(C)ccnc3C(C)C)c3nc(-c4ccccc4F)c(Cl)nc23)[C@@H](C)C1` [Example 111, 6-Chloro-7-(2-fluorophenyl)-1-(4-methyl-2-(2-propanyl)-3-pyridinyl)-4-((2S)-2-methyl-4-(2-propenoyl)-1-piperazinyl)-2(1H)-pteridinone], the “Coupled exchange IC50 (5 min)” value in assay [1] is 0.174 | nda μM. In addition, in assay [2] (Homo sapiens, MIA PaCa-2, 2 h), the IC50 was found to be 195 nM.

Take `C=CC(=O)N1CCN(c2nc(=O)n(-c3c(C)cccc3C(C)C)c3nc(-c4c(C)ccc5[nH]ncc45)c(F)cc23)[C@@H](C)C1` [68-2, 6-fluoro-7-(5-methyl-1H-indazol-4-yl)-1-(2-methyl-6-(2-propanyl)phenyl)-4-((2S)-2-methyl-4-(2-propenoyl)-1-piperazinyl)pyrido[2,3-d]pyrimidin-2(1H)-one]: in assay [1], the “Coupled exchange IC50 (5 min)” value is 0.947 | nda μM. The IC50 in assay [2] (Homo sapiens, MIA PaCa-2, 2 h) turned out to be 999 nM.
